Like-named read-outs stand apart in the source and are kept apart here.
Biological target: T1, recombinant human baculovirus-expressed GST-tagged FASN (Homo sapiens, UniProt P49327)
T1 construct: GST
Assay: biochemical

[1] = 5 nM FASN, 150 μM NADPH, 10 μM acetyl-CoA, 25 μM malonyl-CoA, 90 minutes incubation, read-out: IC50 data for Compounds of Formula I, Activity

T1 sequence (P49327 whole entry): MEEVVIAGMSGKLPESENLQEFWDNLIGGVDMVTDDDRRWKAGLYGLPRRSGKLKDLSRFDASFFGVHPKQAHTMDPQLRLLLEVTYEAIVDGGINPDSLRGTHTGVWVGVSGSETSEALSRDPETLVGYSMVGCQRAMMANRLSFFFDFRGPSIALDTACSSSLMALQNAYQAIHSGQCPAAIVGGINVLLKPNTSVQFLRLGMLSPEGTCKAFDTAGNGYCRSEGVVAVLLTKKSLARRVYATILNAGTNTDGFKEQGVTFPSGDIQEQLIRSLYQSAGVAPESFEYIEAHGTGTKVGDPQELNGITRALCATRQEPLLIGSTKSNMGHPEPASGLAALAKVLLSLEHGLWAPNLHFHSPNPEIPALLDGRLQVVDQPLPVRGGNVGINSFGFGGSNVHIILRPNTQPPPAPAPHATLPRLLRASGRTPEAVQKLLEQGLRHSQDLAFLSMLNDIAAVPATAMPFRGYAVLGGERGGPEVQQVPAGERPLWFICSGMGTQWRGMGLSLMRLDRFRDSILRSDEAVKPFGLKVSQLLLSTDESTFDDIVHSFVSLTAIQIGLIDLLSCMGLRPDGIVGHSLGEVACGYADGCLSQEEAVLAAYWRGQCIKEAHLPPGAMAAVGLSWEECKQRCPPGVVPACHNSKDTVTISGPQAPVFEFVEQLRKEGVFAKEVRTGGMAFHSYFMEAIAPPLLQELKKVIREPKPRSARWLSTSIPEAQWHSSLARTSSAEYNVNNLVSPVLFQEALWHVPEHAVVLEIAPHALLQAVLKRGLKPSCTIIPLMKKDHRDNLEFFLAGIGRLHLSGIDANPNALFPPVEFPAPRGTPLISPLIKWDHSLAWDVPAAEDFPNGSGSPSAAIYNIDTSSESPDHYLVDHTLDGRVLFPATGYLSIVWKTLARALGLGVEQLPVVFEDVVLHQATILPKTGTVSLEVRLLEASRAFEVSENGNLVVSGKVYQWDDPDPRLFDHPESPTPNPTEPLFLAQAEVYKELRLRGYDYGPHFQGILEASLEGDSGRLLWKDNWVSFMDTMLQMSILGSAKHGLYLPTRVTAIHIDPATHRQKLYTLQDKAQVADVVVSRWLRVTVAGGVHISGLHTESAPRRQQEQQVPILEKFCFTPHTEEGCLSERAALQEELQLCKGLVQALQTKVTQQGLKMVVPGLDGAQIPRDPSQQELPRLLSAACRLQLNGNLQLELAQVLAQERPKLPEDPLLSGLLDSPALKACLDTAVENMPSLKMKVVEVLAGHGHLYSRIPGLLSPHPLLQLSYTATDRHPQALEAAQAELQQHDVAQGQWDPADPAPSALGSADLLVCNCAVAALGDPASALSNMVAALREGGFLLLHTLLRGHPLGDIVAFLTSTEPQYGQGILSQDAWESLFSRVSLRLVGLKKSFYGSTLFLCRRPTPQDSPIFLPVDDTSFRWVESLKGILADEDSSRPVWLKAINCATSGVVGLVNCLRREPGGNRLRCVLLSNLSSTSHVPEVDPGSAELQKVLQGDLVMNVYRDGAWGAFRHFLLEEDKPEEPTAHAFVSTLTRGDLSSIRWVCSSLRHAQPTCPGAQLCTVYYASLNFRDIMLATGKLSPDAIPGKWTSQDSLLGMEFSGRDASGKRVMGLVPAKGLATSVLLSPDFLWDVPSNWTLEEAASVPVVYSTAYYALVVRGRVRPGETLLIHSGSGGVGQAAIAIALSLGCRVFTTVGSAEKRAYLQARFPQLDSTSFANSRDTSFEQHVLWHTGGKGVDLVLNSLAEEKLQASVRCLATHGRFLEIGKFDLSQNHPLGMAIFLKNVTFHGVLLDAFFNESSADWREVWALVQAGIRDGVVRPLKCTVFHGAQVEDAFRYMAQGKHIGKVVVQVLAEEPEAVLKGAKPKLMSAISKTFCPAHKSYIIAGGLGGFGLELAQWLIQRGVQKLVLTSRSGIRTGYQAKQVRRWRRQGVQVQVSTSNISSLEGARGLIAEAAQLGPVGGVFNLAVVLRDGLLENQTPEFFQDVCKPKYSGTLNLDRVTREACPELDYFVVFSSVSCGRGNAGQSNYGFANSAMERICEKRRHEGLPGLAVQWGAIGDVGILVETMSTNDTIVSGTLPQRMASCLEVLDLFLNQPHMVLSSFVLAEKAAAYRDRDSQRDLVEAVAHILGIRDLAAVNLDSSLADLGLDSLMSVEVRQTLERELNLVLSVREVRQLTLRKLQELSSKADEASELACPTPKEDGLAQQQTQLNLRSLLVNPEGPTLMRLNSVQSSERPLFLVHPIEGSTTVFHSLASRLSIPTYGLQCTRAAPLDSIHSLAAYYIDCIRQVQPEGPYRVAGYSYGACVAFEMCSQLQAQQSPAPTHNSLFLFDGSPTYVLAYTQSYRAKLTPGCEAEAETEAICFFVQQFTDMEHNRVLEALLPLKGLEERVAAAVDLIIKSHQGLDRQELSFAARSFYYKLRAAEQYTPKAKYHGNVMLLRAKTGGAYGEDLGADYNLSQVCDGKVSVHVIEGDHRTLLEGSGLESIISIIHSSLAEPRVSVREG

Row | Compound | IC50 [nM] | IC50 [1] [nM]
1 | CONC(=O)N1CCC2(CC1)OCCc1cc(-c3ccc4cccnc4c3C)ccc1O2 [Example 80, N-Methoxy-7-(8-methyl-7-quinolyl)spiro[4,5-dihydro-1,3-benzodioxepine-2,4′-piperidine]-1′-carboxamide] | 1 to 99 | 
2 | Cn1cnc2cc(-c3ccc4c(c3)CCC3(CCN(C(N)=O)CC3)O4)ccc21 [Example 81, 6-(1-Methylbenzimidazol-5-yl)spiro[chromane-2,4′-piperidine]-1′-carboxamide] |  | 100 to 999
3 | Cn1cnc2cc(-c3ccc4c(c3)COC3(CCN(C(N)=O)CC3)O4)ccc21 [Example 82, 6-(1-Methylbenzimidazol-5-yl)spiro[4H-1,3-benzodioxine-2,4′-piperidine]-1′-carboxamide] | 100 to 999 | 
4 | NC(=O)N1CCC2(CCc3cc(-c4ccc5scnc5c4)ccc3O2)CC1 [Example 83, 6-(1,3-Benzothiazol-5-yl)spiro[chromane-2,4′-piperidine]-1′-carboxamide] |  | 100 to 999
5 | CC(C)(C)OC(=O)N1CCC2(CC1)OCc1cc(-c3cnc4sccc4c3)ccc1O2 [Example 84, tert-Butyl 6-thieno[2,3-b]pyridin-5-ylspiro[4H-1,3-benzodioxine-2,4′-piperidine]-1′-carboxylate] | 1000 to 10000 | 
6 | NC(=O)N1CCC2(CCc3cc(-c4cnc5sccc5c4)ccc3O2)CC1 [Example 85, 6-Thieno[2,3-b]pyridin-5-ylspiro[chromane-2,4′-piperidine]-1′-carboxamide] |  | 1000 to 10000
7 | NC(=O)N1CCC2(CCc3cc(-c4ccc5ocnc5c4)ccc3O2)CC1 [Example 86, 6-(1,3-Benzoxazol-5-yl)spiro[chromane-2,4′-piperidine]-1′-carboxamide] |  | 1000 to 10000
8 | NC(=O)N1CCC2(CC1)OCc1cc(-c3cnc4sccc4c3)ccc1O2 [Example 89, 6-thieno[2,3-b]pyridin-5-ylspiro[4H-1,3-benzodioxine-2,4′-piperidine]-1′-carboxamide] | 1000 to 10000 | 
9 | CCNC(=O)N1CCC2(CCc3cc(-c4ccc5cccnc5c4C)ccc3O2)CC1 [Example 97, N-Ethyl-6-(8-methyl-7-quinolyl)spiro[chromane-2,4′-piperidine]-1′-carboxamide] |  | 1 to 99
10 | Cc1c(-c2ccc3c(c2)CCC2(CCN(C(=O)NC(C)C)CC2)O3)ccc2cccnc12 [Example 98, N-Isopropyl-6-(8-methyl-7-quinolyl)spiro[chromane-2,4′-piperidine]-1′-carboxamide] |  | 100 to 999
11 | CCCNC(=O)N1CCC2(CCc3cc(-c4ccc5cccnc5c4C)ccc3O2)CC1 [Example 99, 6-(8-Methyl-7-quinolyl)-N-propyl-spiro[chromane-2,4′-piperidine]-1′-carboxamide] |  | 1 to 99
12 | Cc1c(-c2ccc3c(c2)CCC2(CCN(C(=O)NCC4CC4)CC2)O3)ccc2cccnc12 [Example 100, N-(Cyclopropylmethyl)-6-(8-methyl-7-quinolyl)spiro[chromane-2,4′-piperidine]-1′-carboxamide] |  | 1 to 99
13 | CCONC(=O)N1CCC2(CCc3cc(-c4ccc5cccnc5c4C)ccc3O2)CC1 [Example 101, N-Ethoxy-6-(8-methyl-7-quinolyl)spiro[chromane-2,4′-piperidine]-1′-carboxamide] |  | 1 to 99
14 | CCCONC(=O)N1CCC2(CCc3cc(-c4ccc5cccnc5c4C)ccc3O2)CC1 [Example 102, 6-(8-Methyl-7-quinolyl)-N-propoxy-spiro[chromane-2,4′-piperidine]-1′-carboxamide] |  | 1 to 99
15 | Cc1c(-c2ccc3c(c2)CCC2(CCN(C(=O)NOC(C)C)CC2)O3)ccc2cccnc12 [Example 103, N-Isopropoxy-6-(8-methyl-7-quinolyl)spiro[chromane-2,4′-piperidine]-1′-carboxamide] |  | 1 to 99
16 | Cc1c(-c2ccc3c(c2)CCC2(CCN(C(=O)NOCC(C)C)CC2)O3)ccc2cccnc12 [Example 104, N-Isobutoxy-6-(8-methyl-7-quinolyl)spiro[chromane-2,4′-piperidine]-1′-carboxamide] |  | 100 to 999
17 | Cc1c(-c2ccc3c(c2)CCC2(CCN(C(=O)NO)CC2)O3)ccc2cccnc12 [Example 105, 6-(8-methyl-7-quinolyl)spiro[chromane-2,4′-piperidine]-1′-carbohydroxamic acid] |  | 100 to 999
18 | Cc1c(-c2ccc3c(c2)CCC2(CCN(C(N)=O)CC2)O3)ccc2cccnc12 [Example 106, 6-(8-Methyl-7-quinolyl)spiro[chromane-2,4′-piperidine]-1′-carboxamide] |  | 1 to 99
19 | CCONC(=O)N1CCC2(CCc3cc(-c4ccc5nccn5c4C)ccc3O2)CC1 [Example 107, N-Ethoxy-6-(5-methylimidazo[1,2-a]pyridin-6-yl)spiro[chromane-2,4′-piperidine]-1′-carboxamide] |  | 1 to 99
20 | Cc1c(-c2ccc3c(c2)CCC2(CCN(C(=O)NOC(C)C)CC2)O3)ccc2nccn12 [Example 108, N-Isopropoxy-6-(5-methylimidazo[1,2-a]pyridin-6-yl)spiro[chromane-2,4′-piperidine]-1′-carboxamide] |  | 1 to 99

Row | Compound | IC50 [nM] | IC50 [1] [nM]
21 | Cc1c(-c2ccc3c(c2)CCC2(CCN(C(N)=O)CC2)O3)ccc2nccn12 [Example 109, 6-(5-Methylimidazo[1,2-a]pyridin-6-yl)spiro[chromane-2,4′-piperidine]-1′-carboxamide] |  | 100 to 999
22 | CCNC(=O)N1CCC2(CCc3cc(-c4ccc5nccn5c4C)ccc3O2)CC1 [Example 110, N-Ethyl-6-(5-methylimidazo[1,2-a]pyridin-6-yl)spiro[chromane-2,4′-piperidine]-1′-carboxamide] |  | 1 to 99
23 | Cc1c(-c2ccc3c(c2)CCC2(CCN(C(=O)NC(C)C)CC2)O3)ccc2nccn12 [Example 111, N-Isopropyl-6-(5-methylimidazo[1,2-a]pyridin-6-yl)spiro[chromane-2,4′-piperidine]-1′-carboxamide] |  | 100 to 999
24 | CCNC(=O)N1CCC2(CCc3cc(-c4ccc5ccnn5c4C)ccc3O2)CC1 [Example 112, N-Ethyl-6-(7-methylpyrazolo[1,5-a]pyridin-6-yl)spiro[chromane-2,4′-piperidine]-1′-carboxamide] |  | 1 to 99
25 | Cc1c(-c2ccc3c(c2)CCC2(CCN(C(=O)NC(C)C)CC2)O3)ccc2ccnn12 [Example 113, N-Isopropyl-6-(7-methylpyrazolo[1,5-a]pyridin-6-yl)spiro[chromane-2,4′-piperidine]-1′-carboxamide] |  | 100 to 999
26 | Cc1c(-c2ccc3c(c2)CCC2(CCN(C(N)=O)CC2)O3)ccc2ccnn12 [Example 114, 6-(7-Methylpyrazolo[1,5-a]pyridin-6-yl)spiro[chromane-2,4′-piperidine]-1′-carboxamide] |  | 1 to 99
27 | CCONC(=O)N1CCC2(CCc3cc(-c4ccc5ccnn5c4C)ccc3O2)CC1 [Example 115, N-Ethoxy-6-(7-methylpyrazolo[1,5-a]pyridin-6-yl)spiro[chromane-2,4′-piperidine]-1′-carboxamide] |  | 1 to 99
28 | Cc1c(-c2ccc3c(c2)CCC2(CCN(C(=O)NOC(C)C)CC2)O3)ccc2ccnn12 [Example 116, N-Isopropoxy-6-(7-methylpyrazolo[1,5-a]pyridin-6-yl)spiro[chromane-2,4′-piperidine]-1′-carboxamide] |  | 1 to 99
29 | CCNC(=O)N1CCC2(CC1)OCc1cc(-c3ccc4cccnc4c3C)ccc1O2 [Example 117, N-Ethyl-6-(8-methyl-7-quinolyl)spiro[4H-1,3-benzodioxine-2,4′-piperidine]-1′-carboxamide] | 1 to 99 | 
30 | Cc1c(-c2ccc3c(c2)COC2(CCN(C(N)=O)CC2)O3)ccc2cccnc12 [Example 118, 6-(8-Methyl-7-quinolyl)spiro[4H-1,3-benzodioxine-2,4′-piperidine]-1′-carboxamide] | 1 to 99 | 
31 | Cc1c(-c2ccc3c(c2)COC2(CCN(C(=O)NC(C)C)CC2)O3)ccc2cccnc12 [Example 119, N-Isopropyl-6-(8-methyl-7-quinolyl)spiro[4H-1,3-benzodioxine-2,4′-piperidine]-1′-carboxamide] | 1 to 99 | 
32 | CONC(=O)N1CCC2(CCc3cc(-c4ccc5cccnc5c4C)ccc3O2)CC1 [Example 120, N-Methoxy-6-(8-methyl-7-quinolyl)spiro[chromane-2,4′-piperidine]-1′-carboxamide] |  | 1 to 99
33 | CCONC(=O)N1CCC2(CC1)OCc1cc(-c3ccc4cccnc4c3C)ccc1O2 [Example 121, N-Ethoxy-6-(8-methyl-7-quinolyl)spiro[4H-1,3-benzodioxine-2,4′-piperidine]-1′-carboxamide] | 1 to 99 | 
34 | CONC(=O)N1CCC2(CC1)OCc1cc(-c3ccc4cccnc4c3C)ccc1O2 [Example 122, N-Methoxy-6-(8-methyl-7-quinolyl)spiro[4H-1,3-benzodioxine-2,4′-piperidine]-1′-carboxamide] | 1 to 99 | 
35 | Cc1c(-c2ccc3c(c2)COC2(CCN(C(=O)NOC(C)C)CC2)O3)ccc2cccnc12 [Example 123, N-Isopropoxy-6-(8-methyl-7-quinolyl)spiro[4H-1,3-benzodioxine-2,4′-piperidine]-1′-carboxamide] | 1 to 99 | 
36 | CONC(=O)N1CCC2(CCc3cc(-c4ccc5ccnn5c4C)ccc3O2)CC1 [Example 124, N-Methoxy-6-(7-methylpyrazolo[1,5-a]pyridin-6-yl)spiro[chromane-2,4′-piperidine]-1′-carboxamide] |  | 1 to 99
37 | Cc1c(-c2ccc3c(c2)CCC2(CCN(C(=O)NO)CC2)O3)ccc2ccnn12 [Example 125, 6-(7-Methylpyrazolo[1,5-a]pyridin-6-yl)spiro[chromane-2,4′-piperidine]-1′-carbohydroxamic acid] |  | 1000 to 10000
38 | CCNC(=O)N1CCC2(CC1)OCc1cc(-c3ccc4ccnn4c3C)ccc1O2 [Example 126, N-Ethyl-6-(7-methylpyrazolo[1,5-a]pyridin-6-yl)spiro[4H-1,3-benzodioxine-2,4′-piperidine]-1′-carboxamide] | 1 to 99 | 
39 | Cc1c(-c2ccc3c(c2)COC2(CCN(C(N)=O)CC2)O3)ccc2ccnn12 [Example 127, 6-(7-Methylpyrazolo[1,5-a]pyridin-6-yl)spiro[4H-1,3-benzodioxine-2,4′-piperidine]-1′-carboxamide] | 100 to 999 | 

From patent US12448392B2, “Spiropiperidine derivatives” (89BIO LTD, priority 2016, dated 2025)
